Patent US7671028B2, “Peptides that antagonize FPR class receptor mediated signaling” (POSTECH Foundation, priority 2004, dated 2010)
Where a SMILES comes first, the peptide text is derived from it. Where no end group is shown, it is not given here. [ ]: non-standard residue; d: D form.

Legend:
FPRL1 = molecular target: T1, FPRL1 (Homo sapiens, UniProt P25090); experiment: WKYMVm-induced [Ca2+]i increase in FPRL1-expressing RBL-2H3 cells (fura-2); format: cell-based; conditions: inhibition of FPRL1 agonist-induced intracellular calcium increase; peptide added before agonist
T1 construct: expressed in transfected cells; host or cells: RBL-2H3 (rat basophilic leukaemia) cells
T1 sequence (P25090 1-351): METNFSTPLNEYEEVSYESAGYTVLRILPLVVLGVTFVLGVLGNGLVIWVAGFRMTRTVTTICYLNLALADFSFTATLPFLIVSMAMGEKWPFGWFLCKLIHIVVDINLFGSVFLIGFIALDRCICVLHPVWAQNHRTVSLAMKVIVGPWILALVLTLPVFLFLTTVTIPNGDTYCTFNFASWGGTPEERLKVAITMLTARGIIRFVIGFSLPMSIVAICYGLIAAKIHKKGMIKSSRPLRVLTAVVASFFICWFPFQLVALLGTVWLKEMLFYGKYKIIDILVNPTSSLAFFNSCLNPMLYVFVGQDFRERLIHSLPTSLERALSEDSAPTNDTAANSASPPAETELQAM
Protocol: FIGS. 3A-3B show effects of WRW^4 (SEQ ID NO:4) on the WKYMVm (SEQ ID NO:3)-induced [Ca^2+]i rise in FPRL1 expressing RBL-2H3 cells. Fura-2-loaded FPRL1-expressing RBL-2H3 cells were stimulated with vehicle or WRW^4 (SEQ ID NO:4) (10 μM) and then with WKYMVm (SEQ ID NO:3) (10 nM); or FPRL1-expressing RBL-2H3 cells were sensitized with DNP-specific IgE, loaded with fura-2, and activated with the antigen DNP-HSA (1 μg/ml). The changes in 340 nm/380 nm were monitored. The results are representative of three independent experiments (A). Cells were stimulated with various concentrations of WRW^4 (SEQ ID NO:4) prior to adding 10 nM of WKYMVm (SEQ ID NO:3) or 1 μg/ml of DNP-HSA. Peak levels of [Ca^2+]i increase were monitored. The results shown are the means±SE of four independent experiments (B).
Intracellular calcium concentration ([Ca^2+]i) levels were determined by Grynkiewicz's method using fura-2/AM (25). Briefly, prepared cells were incubated with 3 μM fura-2/AM at 37° C. for 50 min in fresh serum free RPMI 1640 medium with continuous stirring. For DNP-HSA stimulation, RBL-2H3 cells were sensitized with 1 μg/ml mouse DNP-specific IgE overnight prior to fura-2 loading (26), and 2×10^6 cells were aliquoted for each assay in Ca^2+ free Locke's solution (154 mM NaCl, 5.6 mM KCl, 1.2 mM MgCl2, 5 mM HEPES, pH 7.3, 10 mM glucose, and 0.2 mM EGTA). The fluorescence changes at excitation wavelengths of 340 nm and 380 nm and a common emission wavelength of 500 nm were measured, and the calibrated fluorescence ratio was converted to [Ca^2+]i.
The stimulation of FPRL1 by WKYMVm (SEQ ID NO:3) elicited a [Ca^2+]i increase in FPRL1-expressing RBL-2H3 cells (FIG. 3A). To investigate whether the inventive peptides inhibited WKYMVm (SEQ ID NO:3)-induced [Ca^2+]i increase, we stimulated fura-2 loaded FPRL1-expressing RBL-2H3 cells with various concentrations of WRW^4 (SEQ ID NO:4), and subsequently stimulated with effective concentration of WKYMVm (SEQ ID NO:3). […] To confirm specific inhibition by WRW^4 (SEQ ID NO:4) on FPRL1-induced signaling, we examined the effect of WRW^4 (SEQ ID NO:4) on another extracellular signal-induced [Ca^2+]i increase. FcεRI cross-linking has been reported to induce a [Ca^2+]i increase in RBL-2H3 cells (26). Stimulation of FPRL1-expressing RBL-2H3 cells (sensitized with 1 μg/ml mouse DNP-specific IgE) with 1 μg/ml DNP-HSA caused a dramatic increase in [Ca^2+]i (FIG. 3A).
Methods and principles of assaying for the effects of a set of diverse peptides on the intracellular concentration of calcium when the peptides are contacted with the cells bearing FPRL1 before the FPRL1 agonist is added is described in Example 1.5 above, and further details of initial experimentation using the peptides is described in Example 2.2.

human neutrophils = experiment: Superoxide generation in human neutrophils (cytochrome c reduction); format: cell-based; conditions: agonist alone, concentration-dependent
Protocol: FIGS. 7A-7D show effects of WRW^4 (SEQ ID NO:4) on the Aβ42-induced superoxide generation and chemotaxis in human neutrophils. […] Cytochrome c reduction was monitored, as described in EXAMPLES. The results shown are representative of four independent experiments (A, B). Chemotaxis assays were performed using a modified Boyden chamber assay, as described in EXAMPLES. […] The data are presented as mean±SE of three independent experiments each performed in duplicate (C, D).
Superoxide anion generation was determined by measuring cytochrome c reduction using a microtiter 96 well plate ELISA reader (Bio-Tekinstruments, EL312e, Winooski, Vt.) as previously described (23). Human neutrophils (1×10^6 cells/100 μl of RPMI 1640 medium per well of a 96-well plate) were preincubated with 50 μM cytochrome c at 37° C. for 1 min and then incubated with the indicated concentrations of peptides. Superoxide generation was determined for the change in light absorption at 550 nm over 5 minutes at 1 min intervals.
Superoxide generation is one of the important functions of phagocytic leukocytes like neutrophils (28).

| Compound | IC50 (FPRL1) [µM] | peptide concentration of maximal superoxide generating effect (human neutrophils) [µM] |
| --- | --- | --- |
| WWWWWW-NH2 [SEQ ID NO:31] | > 10 |  |
| WRRWWW-NH2 [SEQ ID NO:33] | > 10 |  |
| N=C(N)NCCC[C@H](NC(=O)[C@@H](N)Cc1c[nH]c2ccccc12)C(=O)N[C@@H](Cc1c[nH]c2ccccc12)C(N)=O [SEQ ID NO:7] (H-Trp-Arg-Trp-NH2) | > 10 |  |
| Aβ42: amyloid β42 peptide, cleavage fragment of amyloid precursor protein, endogenous ligand for FPRL1 |  | 40 |
| NC(=O)[C@@H](Cc1c[nH]c2ccccc12)NC(=O)[C@H](Cc1c[nH]c2ccccc12)NC(=O)[C@H](Cc1c[nH]c2ccccc12)NC(=O)[C@H](Cc1c[nH]c2ccccc12)NC(=O)[C@H](Cc1c[nH]c2ccccc12)NC(=O)[C@@H](N)Cc1c[nH]c2ccccc12 [SEQ ID NO:32] (H-WWWWW[dW]-NH2) | > 10 |  |
| H-WRWWWW-NH2 [SEQ ID NO:4, Trp-Arg-Trp-Trp-Trp-Trp-CONH2] | 1 ± 0.21 |  |

More lines, main results first:

| IC50 (FPRL1) [µM] | Compound | peptide concentration of maximal superoxide generating effect (human neutrophils) [µM] |
| --- | --- | --- |
| > 10 | N=C(N)NCCC[C@H](N)C(=O)N[C@@H](Cc1c[nH]c2ccccc12)C(=O)N[C@@H](Cc1c[nH]c2ccccc12)C(=O)N[C@H](Cc1c[nH]c2ccccc12)C(N)=O [SEQ ID NO:36] (H-RWW[dW]-NH2) |  |
| > 10 | N=C(N)NCCC[C@H](NC(=O)[C@@H](N)Cc1c[nH]c2ccccc12)C(=O)N[C@@H](Cc1c[nH]c2ccccc12)C(=O)N[C@@H](Cc1c[nH]c2ccccc12)C(N)=O [SEQ ID NO:34] (H-WRWW-NH2) |  |
| 0.0082 ± 0.0006 | CSCC[C@H](NC(=O)[C@H](Cc1c[nH]c2ccccc12)NC(=O)[C@H](Cc1c[nH]c2ccccc12)NC(=O)[C@H](CCCNC(=N)N)NC(=O)[C@H](Cc1c[nH]c2ccccc12)NC(=O)[C@H](N)Cc1c[nH]c2ccccc12)C(N)=O [wWRWWM] (H-[dW]WRWWM-NH2) |  |
| > 10 | NC(=O)[C@@H](Cc1c[nH]c2ccccc12)NC(=O)[C@H](Cc1c[nH]c2ccccc12)NC(=O)[C@H](Cc1c[nH]c2ccccc12)NC(=O)[C@@H](N)Cc1c[nH]c2ccccc12 [SEQ ID NO:35] (H-WWW[dW]-NH2) |  |
